Reference: patent publication US12611423B2, “Medical use of tafoxiparin” (DILAFOR AB, priority 2022, dated 2026)

Columns and labels:
factor IIa = assay: antifactor IIa activity of tafoxiparin; type: biochemical; details: definition of tafoxiparin
[1] = anticoagulant activity (descriptive)
factor Xa = assay: antifactor Xa activity of tafoxiparin; type: biochemical; details: definition of tafoxiparin
factor Xa, sequence (P01008 33-464 partner): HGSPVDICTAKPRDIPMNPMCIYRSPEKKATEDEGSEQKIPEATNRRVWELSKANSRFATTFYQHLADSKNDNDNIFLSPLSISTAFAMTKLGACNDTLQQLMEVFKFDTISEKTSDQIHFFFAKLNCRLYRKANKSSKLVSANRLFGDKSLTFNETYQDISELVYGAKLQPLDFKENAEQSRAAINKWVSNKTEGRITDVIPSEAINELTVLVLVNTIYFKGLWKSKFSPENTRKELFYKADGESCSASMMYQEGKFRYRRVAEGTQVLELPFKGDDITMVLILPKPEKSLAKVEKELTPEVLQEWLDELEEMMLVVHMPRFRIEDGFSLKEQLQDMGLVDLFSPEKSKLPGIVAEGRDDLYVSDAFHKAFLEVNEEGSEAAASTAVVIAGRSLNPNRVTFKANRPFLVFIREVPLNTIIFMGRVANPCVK
factor Xa, sequence (P00742 235-488 limits assumed, further chain): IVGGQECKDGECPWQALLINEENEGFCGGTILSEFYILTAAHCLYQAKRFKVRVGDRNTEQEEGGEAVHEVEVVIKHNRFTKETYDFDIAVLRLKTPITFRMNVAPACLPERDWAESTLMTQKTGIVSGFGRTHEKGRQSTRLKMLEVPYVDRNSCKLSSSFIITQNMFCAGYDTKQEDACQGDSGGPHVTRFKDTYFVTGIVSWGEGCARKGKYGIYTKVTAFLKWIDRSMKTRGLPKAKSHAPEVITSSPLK

factor IIa, sequence (P01008 33-464): as the sequence (P01008 33-464 partner) above

tafoxiparin
antifactor Ila activity (factor IIa): less than 10 IU/mg
anticoagulant activity [1]: essentially no anticoagulant activity
antifactor Xa activity (factor Xa): less than 10 IU/mg
